Data from US20210332139A1, “MODULATION OF LEUKOCYTE ACTIVITY IN TREATMENT OF NEUROINFLAMMATORY DEGENERATIVE DISEASE” (Leuvas Therapeutics, priority 2013, published 2021).
Where “and” joins values, the source holds several entries; their conditions need not be identical. Identical values can stand only once.

Tests used:
[1] = system: Bend.3 endothelial cell line; assay: Adhesion molecule expression on Bend.3 endothelial cells (immunofluorescence); type: cell-based, mouse; set-up: key: −: VCAM-1 and selectins were not expressed (indicated by -, Table 2); constitutively expressed at low levels on endothelial cells (indicated by +/−, some vessels were positive for ICAM-1, Table 2); an increase of ICAM-1 expression (indicated by +, Table 2); conditions: Bend.3 cells, 10 μM Aβ1-42 oligomers, 18 h
Description: We performed in vitro experiments to study the effect of soluble Aβ1-42 oligomers on the endothelial cell line Bend.3, derived from mouse cerebral cortex purchased by ATCC& Cell Biology Collection (CRL-2299TM).
Briefly, Bend.3 were cultured at a concentration of 20×10^3/ml on a glass coverslip in 24-well plates containing DMEM supplemented with 10% Fetal Calf Serum (FCS). Cells were stimulated with 10 μM Aβ 1-42, for 18 h in DMEM with 1% FCS. […] positive control, cells were treated with 25 U/ml of TNFα for 18 h in DMEM with 1% FCS. Bend.3 were rinsed with PBS and fixed with 4% PFA for 10 minutes. Cells were washed with PBS incubated with blocking buffer for 1 h at RT° C. Primary antibodies were diluted in 1% Bovine Serum Albumin (BSA) PBS. Cells were incubated overnight at 4° C. with 50 μg/ml anti-VCAM (hybridoma MK2.7), 10 μg/ml anti-ICAM (hybridoma YN1.7), 0.5 μg/ml anti-CD31 (370700, Invitrogen), 5 μg/ml anti-E-selectin (hybridoma RME-1) and 1.5 μg/ml anti-P-selectin (CD62P, BD Pharmigen). The day after, cells were rinsed 2 times with PBS and then incubated with 7.5 μg/ml biotinylated secondary antibody (rabbit anti-rat, T0226, VectorLab) for 1 h at RT° C. Cells were rinsed 2 times with PBS and incubated with 25 μg/ml Avidin-TexasRed (A2006, Vector Lab) for 1 h at RT° C. in the dark. After rinsing in PBS, cells were incubated with 1 μg/ml Dapi (D9542, Sigma-Aldrich, St. Louis, Mo.), for 5 minutes in the dark. Finally, glass coverslip was transferred on glass slides and mounted with Dako medium (S3023, DAKO NORTH AMERICA, Carpinteria, Calif.). Glass slides were kept at 4° C. in the dark and acquired by LEICA fluorescence microscopy (DM6000B, LEICA, Germany).
We analyzed the expression of VCAM-1, ICAM-1, E- and P-selectin on Bend.3 after Aβ1-42 oligomers stimulation. TNF-α stimulation, which is well known to up-regulate the adhesion molecules expression, was used as positive control. We evaluated a dose-response effect of Aβ1-42 soluble oligomers on Bend.3 cells, ranging from 1 to 10 μM after 6 or 18 hours of treatment. After 18 h of treatment with 10 μM Aβ we observed a significant up-regulation of […] compared to non-stimulated control cells (CTRL) (Table 2). […] ICAM-1 was constitutively expressed at low levels on endothelial cells (indicated by +/−, some vessels were positive for ICAM-1, Table 2), but 18 h treatment with Aβ1-42 led to an increase of ICAM-1 expression (indicated by +, Table 2).

[2] = system: human neutrophils; assay: Rapid adhesion of human neutrophils to fibrinogen and ICAM-1; type: cell-based; conditions: mean+/−SD
Source text: (§1) All data are expressed as the mean+/−SD of bound cells in 0.2 mm^2 from three independent experiments made in duplicate.

[3] = system: mouse neutrophils; assay: Rapid adhesion of mouse neutrophils to fibrinogen and ICAM-1; type: cell-based; conditions: mean+/−SD
Source text: as §1

[4] = system: neutrophils; assay: Rapid adhesion of neutrophils, soluble versus fibrillary Aβ1-42; type: cell-based; conditions: mean+/−SD
Source text: Although two-times less efficient than the soluble form, fibrillary Aβ triggered a significant increase of rapid neutrophil adhesion on both ICAM-1 and fibrinogen (Table 8; data are expressed as the mean+/−SD of bound cells in 0.2 mm^2 from three independent experiments made in duplicate).

[5] = system: human neutrophils; assay: Rapid human neutrophil adhesion to ICAM-1, inhibition by bocMLF and PTx; type: cell-based; conditions: oligomeric Aβ, 2 minutes
Description: (§2) It is known that one of the receptors for Aβ is the receptor for fMLP, formylpeptide chemotactic receptor (FPR). To evaluate the contribution of this GPCR receptor on Aβ-dependent neutrophil adhesion, we inhibited its function using boc-MLF, a formyl-peptide chemotactic receptor antagonist. Human neutrophils were incubated for 2 minutes with buffer (control) or with oligomeric Aβ. 0.1 μM fMLP was used as a positive control. Values are expressed as the mean counts of bound cells in 0.2 mm^2 from three independent experiments in duplicate. Error bars represent SD. […] To exclude the possibility that rapid adhesion triggering was a consequence of a generic plasma membrane alteration due to the lipophilic nature of Aβ, we evaluated rapid adhesion in lymphocytes, which are known to lack fMLP receptors.

[6] = system: lymphocytes; assay: Rapid adhesion in lymphocytes; type: cell-based; conditions: lymphocytes lack fMLP receptors, result in words
Description: as §2

[7] = system: human neutrophils; assay: Isoluminol chemiluminescence ROS assay, human neutrophils; type: cell-based; conditions: human neutrophils on fibrinogen, mean+/−SD
Description: One of the mechanisms of neuronal damage by beta-amyloid in Alzheimer's disease is the generation of reactive oxygen species (ROS). We determined whether Aβ1-42 oligomers induce ROS production in neutrophils by using a chemiluminescence assay.
(§3) Isoluminol-based chemiluminescence assays were performed in HGCa in the presence of horseradish peroxidase (HRP) and isoluminol (both from Sigma-Aldrich) in a temperature-controlled Multilabel Count Victor X5 (Perkin Elmer). Assays were run in dark 96 well plates precoated with 250 μg/ml human fibrinogen in HGCa containing (final concentration): 100 μM isoluminol and 8 U/ml HRP. After addition of 1×10^5 human neutrophils or 7.5×10^5 mouse neutrophils, plates were left at 37° C. for 5-10 min and the reaction started by addition of the stimulus. Light emission was recorded every minute.
(§4) We used the chemotactic peptide fMLP as positive control. […] Data are mean+/−SD for three independent experiments.

[8] = system: mouse neutrophils; assay: Isoluminol chemiluminescence ROS assay, mouse neutrophils; type: cell-based; conditions: mean+/−SD
Description: as §3, §4
Data are mean+/−SD counts per second.

## Abeta 1-42: soluble oligomeric amyloid-beta 1-42 peptide used as stimulus
[1]
  CD31 expression (endothelial cell marker): +
  E-sel expression: +
  ICAM-1 expression: +
  P-sel expression: +
  VCAM-1 expression: +
[2]; 1 μM
  Rapid adhesion to Fibrinogen: 108.0 ± 26.1 bound cells in 0.2 mm^2
  Rapid adhesion to ICAM-1: 156.5 ± 40.9 bound cells in 0.2 mm^2
[2]; 5 μM
  Rapid adhesion to Fibrinogen: 200.9 ± 48.7 bound cells in 0.2 mm^2
  Rapid adhesion to ICAM-1: 184.0 ± 55.4 bound cells in 0.2 mm^2
[2]; 10 μM
  Rapid adhesion to Fibrinogen: 285.2 ± 38.9 bound cells in 0.2 mm^2
  Rapid adhesion to ICAM-1: 229.2 ± 43.4 bound cells in 0.2 mm^2
[2]; 20 μM
  Rapid adhesion to Fibrinogen: 449.1 ± 34.0 bound cells in 0.2 mm^2
  Rapid adhesion to ICAM-1: 281.0 ± 30.7 bound cells in 0.2 mm^2
[3]; 5 μM
  Rapid adhesion to Fibrinogen: 37.13 ± 3.25 bound cells in 0.2 mm^2
  Rapid adhesion to ICAM-1: 149.9 ± 28 bound cells in 0.2 mm^2
[3]; 10 μM
  Rapid adhesion to Fibrinogen: 44.75 ± 3.68 bound cells in 0.2 mm^2
  Rapid adhesion to ICAM-1: 201.9 ± 14.14 bound cells in 0.2 mm^2
[3]; 20 μM
  Rapid adhesion to Fibrinogen: 88.75 ± 7.72 bound cells in 0.2 mm^2
  Rapid adhesion to ICAM-1: 285.3 ± 12.5 bound cells in 0.2 mm^2
[3]; Abeta 1 μM
  Rapid adhesion to Fibrinogen: 8 ± 2.42 bound cells in 0.2 mm^2
  Rapid adhesion to ICAM-1: 27.42 ± 3.59 bound cells in 0.2 mm^2
[4]; 15 μM
  Rapid adhesion to Fibrinogen: 180.7 ± 30.7 bound cells in 0.2 mm^2
  Rapid adhesion to ICAM-1: 480.7 ± 61.7 bound cells in 0.2 mm^2
[4]; 30 μM
  Rapid adhesion to Fibrinogen: 419.2 ± 30.7 bound cells in 0.2 mm^2
  Rapid adhesion to ICAM-1: 738.5 ± 29.3 bound cells in 0.2 mm^2
[5]
  Neutrophil adhesion to ICAM-1, stimulus alone (Ctrl, no inhibitor): 490.4 ± 38.9 bound cells in 0.2 mm^2 and 475.5 ± 40.0 bound cells in 0.2 mm^2
[6]
  Adhesion to fibrinogen or to ICAM-1 in lymphocytes: did not induce adhesion
[7]; 1 min
  ROS generation (chemiluminescence): 558 ± 112
[7]; 2 min
  ROS generation (chemiluminescence): 540 ± 106
[7]; 3 min
  ROS generation (chemiluminescence): 358 ± 132
[7]; 4 min
  ROS generation (chemiluminescence): 235 ± 61
[7]; 5 min
  ROS generation (chemiluminescence): 199 ± 76
[8]; 1 min
  ROS generation (chemiluminescence): 226 ± 34 counts per second
[8]; 2 min
  ROS generation (chemiluminescence): 103 ± 17 counts per second
